# In PubChem BioAssay (NCI):
#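 Interpolation was linear, between the two tested concentrations surrounding the appropriate level; five concentrations were tested over 48 hours in 96-well plates. GI50 = concentration required for 50% inhibition of growth. TGI: concentration producing complete growth inhibition.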
# How the values were obtained:
# Assay in all cases: growth of human tumour cells (NCI), 48 h
# [1] = test system: SK-MEL-2 melanoma
# [2] = test system: NCI-H460 lung
# [3] = test system: MCF7 breast
# [4] = test system: HCC-2998 colon
# [5] = test system: UACC-62 melanoma
# [6] = test system: MDA-MB-435
# [7] = test system: HL-60(TB) leukemia
# [8] = test system: SF-539 CNS
# [9] = test system: A498 renal
# [10] = test system: HS 578T breast
# [11] = test system: IGROV1 ovarian
# [12] = test system: MOLT-4 leukemia
# [13] = test system: NCI/ADR-RES ovarian
# [14] = test system: M14 melanoma
# [15] = test system: ACHN renal
# [16] = test system: 786-0 renal
# [17] = test system: HCT-15 colon
# [18] = test system: HT29 colon
# [19] = test system: MDA-MB-231 breast
# [20] = test system: OVCAR-3 ovarian
# [21] = test system: SNB-19 CNS
# [22] = test system: CCRF-CEM leukemia
# [23] = test system: SR leukemia
# [24] = test system: SNB-75 CNS
# [25] = test system: UO-31 renal
# [26] = test system: NCI-H226 lung
# [27] = test system: DU-145 prostate
# [28] = test system: T-47D breast
# [29] = test system: OVCAR-8 ovarian
# [30] = test system: UACC-257 melanoma
# [31] = test system: U251 CNS
# [32] = test system: BT-549 breast
# [33] = test system: OVCAR-5 ovarian
# [34] = test system: OVCAR-4 ovarian
# [35] = test system: MALME-3M melanoma
# [36] = test system: A549 NSCLC
# [37] = test system: KM12 colon
# [38] = test system: SK-MEL-5 melanoma
# [39] = test system: CAKI-1 renal
# [40] = test system: SW-620 colon
# [41] = test system: COLO 205 colon
# [42] = test system: HCT-116 colon
# [43] = test system: SK-OV-3 ovarian
# [44] = test system: SN12C renal
# [45] = test system: TK-10 renal
# [46] = test system: K-562 leukemia
# [47] = test system: SF-268 CNS
# [48] = test system: HOP-92 NSCLC
# [49] = test system: LOX IMVI melanoma
# [50] = test system: SK-MEL-28 melanoma
# [51] = test system: HOP-62 NSCLC
# [52] = test system: NCI-H23 lung
# [53] = test system: RXF 393 renal
# [54] = test system: PC-3 prostate
# [55] = test system: NCI-H522 lung
structure (smiles),measurement,setting,value
CCOC(=O)N1C/C(=C/c2ccc(Cl)cc2)C(=O)/C(=C/c2ccc(Cl)cc2)C1,GI50,[1],19.6 µM
same,TGI,[1],40.9 µM
same,GI50,[2],3.86 µM
same,TGI,[2],16.4 µM
same,GI50,[3],1550 nM
same,TGI,[3],8.04 µM
same,GI50,[4],2320 nM
same,TGI,[4],5.29 µM
same,GI50,[5],3 µM
same,TGI,[5],14.3 µM
same,GI50,[6],3.33 µM
same,TGI,[6],13 µM
same,GI50,[7],7.04 µM
same,TGI,[7],88.7 µM
same,GI50,[8],2670 nM
same,TGI,[8],7.81 µM
same,GI50,[9],12 µM
same,TGI,[9],26.4 µM
same,GI50,[10],3.94 µM
same,TGI,[10],41.8 µM
same,GI50,[11],3.52 µM
same,TGI,[11],13 µM
same,GI50,[12],4.65 µM
same,TGI,[12],> 100 µM
same,GI50,[13],7.45 µM
same,TGI,[13],95.6 µM
same,GI50,[14],4.23 µM
same,TGI,[14],17.8 µM
same,GI50,[15],3.04 µM
same,TGI,[15],10.5 µM
same,GI50,[16],2080 nM
same,TGI,[16],4.35 µM
same,GI50,[17],2180 nM
same,TGI,[17],7.24 µM
same,GI50,[18],1970 nM
same,TGI,[18],3.95 µM
same,GI50,[19],2880 nM
same,TGI,[19],9.37 µM
same,GI50,[20],2220 nM
same,TGI,[20],4.57 µM
same,GI50,[21],4.66 µM
same,TGI,[21],18.4 µM
same,GI50,[22],3.24 µM
same,TGI,[22],> 100 µM
same,GI50,[23],1490 nM
same,TGI,[23],> 100 µM
same,GI50,[24],3.15 µM
same,TGI,[24],16.2 µM
same,GI50,[25],2360 nM
same,TGI,[25],7.2 µM
same,GI50,[26],16.9 µM
same,TGI,[26],52 µM
same,GI50,[27],4.36 µM
same,TGI,[27],15.9 µM
same,GI50,[28],3.74 µM
same,TGI,[28],35.5 µM
same,GI50,[29],3.81 µM
same,TGI,[29],86.4 µM
same,GI50,[30],8.54 µM
same,TGI,[30],23.9 µM
same,GI50,[31],1980 nM
same,TGI,[31],4.18 µM
same,GI50,[32],2410 nM
same,TGI,[32],5.6 µM
same,GI50,[33],4.43 µM
same,TGI,[33],19.8 µM
same,GI50,[34],3.35 µM
same,TGI,[34],14.4 µM
same,GI50,[35],15.4 µM
same,TGI,[35],32 µM
same,GI50,[36],3.06 µM
same,TGI,[36],20.7 µM
same,GI50,[37],2100 nM
same,TGI,[37],4.39 µM
same,GI50,[38],3.43 µM
same,TGI,[38],13.1 µM
same,GI50,[39],4.57 µM
same,TGI,[39],> 100 µM
same,GI50,[40],2060 nM
same,TGI,[40],4.73 µM
same,GI50,[41],2960 nM
same,TGI,[41],8.83 µM
same,GI50,[42],1040 nM
same,TGI,[42],2720 nM
same,GI50,[43],5.42 µM
same,TGI,[43],20.8 µM
same,GI50,[44],2840 nM
same,TGI,[44],11.7 µM
same,GI50,[45],5.01 µM
same,TGI,[45],17.6 µM
same,GI50,[46],3.34 µM
same,TGI,[46],> 100 µM
same,GI50,[47],3.86 µM
same,TGI,[47],14.7 µM
same,GI50,[48],10.5 µM
same,TGI,[48],32 µM
same,GI50,[49],1890 nM
same,TGI,[49],4.22 µM
same,GI50,[50],3.43 µM
same,TGI,[50],12.7 µM
same,GI50,[51],2470 nM
same,TGI,[51],5.72 µM
same,GI50,[52],5.37 µM
same,TGI,[52],27.7 µM
same,GI50,[53],1690 nM
same,TGI,[53],3.34 µM
same,GI50,[54],2940 nM
same,TGI,[54],15 µM
same,GI50,[55],9.77 µM
same,TGI,[55],22.4 µM
